Test results published in ChEMBL document CHEMBL5584208, “Conformationally constrained potent inhibitors for enhancer of zeste homolog 2 (EZH2)” (Bioorg Med Chem Lett, 2024).
Each block holds one molecule with its values, some of them ahead of it.

Assays:
[1] = AUC (0 to infinity) in mouse at 10 mg/kg, po; format: ADME, organism-based; settings: in vivo
[2] = Metabolic stability in monkey liver microsomes assessed as intrinsic clearance in liver; format: ADME, Macaca mulatta, Microsome; settings: rhesus monkey, read-out: CLH
[3] = Metabolic stability in rat liver microsomes assessed as intrinsic clearance in hepatocytes measured per million cells; format: ADME, Microsome
[4] = Metabolic stability in mouse liver microsomes assessed as intrinsic clearance in hepatocytes measured per million cells; format: ADME, Microsome
[5] = Clearance in mouse at 2 mg/kg, iv; format: ADME, organism-based; settings: in vivo
[6] = Oral bioavailability in mouse at 10 mg/kg; format: ADME, organism-based; settings: in vivo
WSUDLCL2 = assay: Antiproliferative activity against human WSUDLCL2 cells harboring EZH2 Y641F mutant; format: functional, cell-based
[7] = Metabolic stability in dog liver microsomes assessed as intrinsic clearance in liver; format: ADME, Canis lupus familiaris, Microsome; settings: read-out: CLH
[8] = AUC (0 to t) in mouse at 2 mg/kg, iv; format: ADME, organism-based; settings: in vivo
[9] = Metabolic stability in mouse liver microsomes assessed as intrinsic clearance in liver; format: ADME, Microsome; settings: read-out: CLH
[10] = Metabolic stability in monkey liver microsomes assessed as intrinsic clearance in hepatocytes measured per million cells; format: ADME, Macaca mulatta, Microsome; settings: rhesus monkey
[11] = Metabolic stability in rat liver microsomes assessed as half life; format: ADME, Microsome
[12] = Volume of distribution at steady state in mouse at 2 mg/kg, iv; format: ADME, organism-based; settings: in vivo, read-out: Vdss
[13] = Metabolic stability in mouse liver microsomes assessed as half life; format: ADME, Microsome
[14] = Metabolic stability in human liver microsomes assessed as intrinsic clearance in hepatocytes measured per million cells; format: ADME, Microsome
[15] = Metabolic stability in rat liver microsomes assessed as intrinsic clearance in liver; format: ADME, Microsome; settings: read-out: CLH
[16] = AUC (0 to infinity) in mouse at 2 mg/kg, iv; format: ADME, organism-based; settings: in vivo
[17] = Half life in mouse at 2 mg/kg, iv; format: ADME, organism-based; settings: in vivo
[18] = Cmax in mouse at 2 mg/kg, iv; format: ADME, organism-based; settings: in vivo
[19] = Metabolic stability in monkey liver microsomes assessed as half life; format: ADME, Macaca mulatta, Microsome; settings: rhesus monkey
[20] = AUC (0 to t) in mouse at 10 mg/kg, po; format: ADME, organism-based; settings: in vivo
Pfeiffer [21] = assay: Antitumor activity against human Pfeiffer cells harboring EZH2 A677G mutant xenografted in mouse at 100 mg/kg, po qd for 28 days relative to control; format: functional; settings: 672 h, time 28 day, read-out: TGI
[22] = Metabolic stability in human liver microsomes assessed as half life; format: ADME, Microsome
[23] = Drug concentration in human KARPAS-422 cells harboring EZH2 Y641N mutant xenografted in mouse at 100 mg/kg, po measured after 4 hrs; format: ADME, organism-based; settings: KARPAS-422 xenograft tumour, read-out: Ct
[24] = Cmax in mouse at 10 mg/kg, po; format: ADME, organism-based; settings: in vivo
[25] = Metabolic stability in human liver microsomes assessed as intrinsic clearance in liver; format: ADME, Microsome; settings: read-out: CLH
KARPAS-422 [26] = assay: Antiproliferative activity against human KARPAS-422 cells harboring EZH2 Y641N mutant; format: functional, cell-based
Pfeiffer [27] = assay: Antiproliferative activity against human Pfeiffer cells harboring EZH2 A677G mutant; format: functional, cell-based
[28] = Drug concentration in human KARPAS-422 cells harboring EZH2 Y641N mutant xenografted in mouse at 100 mg/kg, po measured after 8 hrs; format: ADME, organism-based; settings: KARPAS-422 xenograft tumour, read-out: Ct
[29] = Toxicity in mouse xenografted with human KARPAS-422 cells harboring EZH2 Y641N mutant assessed as body weight loss at 100 mg/kg, po bid for 28 days; format: organism-based; settings: in vivo, 672 h, time 28 day
KARPAS-422 [30] = assay: Antitumor activity against human KARPAS-422 cells harboring EZH2 Y641N mutant xenografted in mouse at 100 mg/kg, po bid for 28 days relative to control; format: functional; settings: KARPAS-422, 672 h, time 28 day, read-out: TGI
[31] = Toxicity in mouse xenografted with human Pfeiffer cells harboring EZH2 A677G mutant assessed as body weight loss at 100 mg/kg, po qd for 28 days; format: organism-based; settings: in vivo, 672 h, time 28 day
[32] = Metabolic stability in dog liver microsomes assessed as intrinsic clearance in hepatocytes measured per million cells; format: ADME, Canis lupus familiaris, Microsome
[33] = Metabolic stability in dog liver microsomes assessed as half life; format: ADME, Canis lupus familiaris, Microsome
[34] = Half life in mouse at 10 mg/kg, po; format: ADME, organism-based; settings: in vivo
Pfeiffer [35] = assay: Antitumor activity against human Pfeiffer cells harboring EZH2 A677G mutant xenografted in mouse at 50 mg/kg, po qd for 28 days relative to control; format: functional; settings: 672 h, time 28 day, read-out: TGI
[36] = Toxicity in mouse xenografted with human Pfeiffer cells harboring EZH2 A677G mutant assessed as body weight loss at 25 to 100 mg/kg, po qd for 28 days; format: organism-based; settings: in vivo, 672 h, dose 25-100 mg/kg, time 28 day
Pfeiffer [37] = assay: Antitumor activity against human Pfeiffer cells harboring EZH2 A677G mutant xenografted in mouse assessed as reduction in tumor volume at 25 to 100 mg/kg, po qd for 28 days; format: functional; set-up: scale not given: the % may be the effect or the level left; settings: dose 25-100 mg/kg, time 28 day
KARPAS-422 [38] = assay: Antitumor activity against human KARPAS-422 cells harboring EZH2 Y641N mutant xenografted in mouse at 50 mg/kg, po bid for 28 days relative to control; format: functional; settings: KARPAS-422, 672 h, time 28 day, read-out: TGI
Pfeiffer [39] = assay: Antitumor activity against human Pfeiffer cells harboring EZH2 A677G mutant xenografted in mouse at 25 mg/kg, po qd for 28 days relative to control; format: functional; settings: 672 h, time 28 day, read-out: TGI
[40] = Toxicity in mouse xenografted with human KARPAS-422 cells harboring EZH2 Y641N mutant assessed as body weight loss at 50 to 200 mg/kg, po bid for 28 days; format: organism-based; settings: in vivo, 672 h, dose 50-200 mg/kg, time 28 day
KARPAS-422 [41] = assay: Antitumor activity against human KARPAS-422 cells harboring EZH2 Y641N mutant xenografted in mouse at 200 mg/kg, po bid for 28 days relative to control; format: functional; settings: KARPAS-422, 672 h, time 28 day, read-out: TGI
KARPAS-422 [42] = assay: Antitumor activity against human KARPAS-422 cells harboring EZH2 Y641N mutant xenografted in mouse assessed as reduction tumor volume at 50 to 200 mg/kg, po bid for 28 days relative to control; format: functional; set-up: scale not given: the % may be the effect or the level left; settings: dose 50-200 mg/kg, time 28 day

Compound: CCN(c1cc(-c2ccc(CN3CCOCC3)cc2)cc(C(=O)NCc2c(C)cc(C)[nH]c2=O)c1C)C1CCOCC1 [TAZEMETOSTAT]
AUC(0-inf) [1]: 4370 ng·h/mL
CLint scaled [2]: 237 mL/min/kg
CLH [3]: 74.1 µL/min
CLH [4]: 144.6 µL/min
clearance [5]: 12.4 mL/min/kg
bioavailability [6]: 32%
IC50 (WSUDLCL2): 6.44 nM
CLint scaled [7]: 458 mL/min/kg
AUC(0-t) [8]: 2710 ng·h/mL
CLint scaled [9]: 1720 mL/min/kg
CLH [10]: 65.9 µL/min
half-life [11]: 18.7 min
Vd [12]: 0.623 L/kg
half-life [13]: 9.6 min
CLH [14]: 23.6 µL/min
CLint scaled [15]: 347 mL/min/kg
AUC(0-inf) [16]: 2720 ng·h/mL
half-life [17]: 35.4 min
Cmax [18]: 2010 ng/mL
half-life [19]: 21 min
AUC(0-t) [20]: 4340 ng·h/mL
inhibition in vivo at 100 mg/kg (Pfeiffer [21]): 71.9%
half-life [22]: 58.7 min
concentration at 4 h [23]: 2340 ng/mL
Cmax [24]: 1950 ng/mL
CLint scaled [25]: 65.7 mL/min/kg
IC50 (KARPAS-422 [26]): 3.86 nM
IC50 (Pfeiffer [27]): 2.26 nM
concentration at 8 h [28]: 416 ng/mL
Activity [29]: Non-Toxic
inhibition in vivo at 100 mg/kg (KARPAS-422 [30]): 20.2%
Activity [31]: Non-Toxic
CLH [32]: 66.5 µL/min
half-life [33]: 20.8 min
half-life [34]: 52.8 min

Compound: CCN(c1cc(-c2ccc3c(c2)N(C)CC32CCOCC2)cc(C(=O)NCc2c(C)cc(C)[nH]c2=O)c1C)C1CCOCC1
AUC(0-inf) [1]: 570 ng·h/mL
clearance [5]: 34.6 mL/min/kg
bioavailability [6]: 11.9%
IC50 (WSUDLCL2): 1.9 nM
AUC(0-t) [8]: 949 ng·h/mL
Vd [12]: 0.565 L/kg
AUC(0-inf) [16]: 955 ng·h/mL
half-life [17]: 10.8 min
Cmax [18]: 2790 ng/mL
AUC(0-t) [20]: 566 ng·h/mL
Cmax [24]: 1280 ng/mL
IC50 (KARPAS-422 [26]): 1.9 nM
IC50 (Pfeiffer [27]): 1.01 nM
half-life [34]: 10.8 min

Compound: CCN(c1cc(-c2ccc3c(c2)NC(=O)C32CCN(C)CC2)cc(C(=O)NCc2c(C)cc(C)[nH]c2=O)c1C)C1CCOCC1
AUC(0-inf) [1]: 3.4 ng·h/mL
clearance [5]: 27.9 mL/min/kg
bioavailability [6]: 0.06%
IC50 (WSUDLCL2): 3.58 nM
AUC(0-t) [8]: 1230 ng·h/mL
Vd [12]: 0.688 L/kg
AUC(0-inf) [16]: 1230 ng·h/mL
half-life [17]: 37.2 min
Cmax [18]: 3680 ng/mL
AUC(0-t) [20]: 3.4 ng·h/mL
Cmax [24]: 13.5 ng/mL
IC50 (KARPAS-422 [26]): 2.19 nM
IC50 (Pfeiffer [27]): 1.98 nM

Stronger by IC50 (KARPAS-422 [26]), values ahead:

AUC(0-inf) [1]: 2970 ng·h/mL
CLint scaled [2]: 272 mL/min/kg
CLH [3]: 99.9 µL/min
CLH [4]: 79.3 µL/min
clearance [5]: 20.7 mL/min/kg
bioavailability [6]: 36.9%
CLint scaled [7]: 276 mL/min/kg
AUC(0-t) [8]: 1610 ng·h/mL
CLint scaled [9]: 942 mL/min/kg
CLH [10]: 75.6 µL/min
half-life [11]: 13.9 min
Vd [12]: 0.65 L/kg
half-life [13]: 17.5 min
CLH [14]: 17.3 µL/min
CLint scaled [15]: 468 mL/min/kg
AUC(0-inf) [16]: 1610 ng·h/mL
half-life [17]: 25.2 min
Cmax [18]: 2400 ng/mL
half-life [19]: 18.3 min
AUC(0-t) [20]: 2960 ng·h/mL
half-life [22]: 80.3 min
concentration at 4 h [23]: 8580 ng/mL
Cmax [24]: 1700 ng/mL
CLint scaled [25]: 48 mL/min/kg
IC50 (KARPAS-422 [26]): 1.82 nM
concentration at 8 h [28]: 9520 ng/mL
CLH [32]: 40.2 µL/min
half-life [33]: 34.5 min
half-life [34]: 40.2 min
Compound: CCN(c1cc(-c2ccc3c(c2)CCC3N2CCOCC2)cc(C(=O)NCc2c(C)cc(C)[nH]c2=O)c1C)C1CCOCC1 (stereo unspecified)
inhibition in vivo at 50 mg/kg (Pfeiffer [35]): 68.9%
Activity [36]: Non-Toxic
IC50 (WSUDLCL2): 2.36 nM
Activity (Pfeiffer [37]): 53.1%
inhibition in vivo at 100 mg/kg (Pfeiffer [21]): 100%
inhibition in vivo at 50 mg/kg (KARPAS-422 [38]): 16%
IC50 (Pfeiffer [27]): 1.73 nM
inhibition in vivo at 100 mg/kg (KARPAS-422 [30]): 52.5%
inhibition in vivo at 25 mg/kg (Pfeiffer [39]): 53.1%
Activity [40]: Non-Toxic
inhibition in vivo at 200 mg/kg (KARPAS-422 [41]): 98%
Activity (KARPAS-422 [42]): 16%

AUC(0-inf) [1]: 1360 ng·h/mL
clearance [5]: 43 mL/min/kg
bioavailability [6]: 33%
AUC(0-t) [8]: 818 ng·h/mL
Vd [12]: 0.803 L/kg
AUC(0-inf) [16]: 831 ng·h/mL
half-life [17]: 19.2 min
Cmax [18]: 2580 ng/mL
AUC(0-t) [20]: 1350 ng·h/mL
Cmax [24]: 1750 ng/mL
IC50 (KARPAS-422 [26]): 1.79 nM
half-life [34]: 27.6 min
Compound: CCN1C(=O)C2(CCOCC2)c2ccc(-c3cc(C(=O)NCc4c(C)cc(C)[nH]c4=O)c(C)c(N(CC)C4CCOCC4)c3)cc21
IC50 (WSUDLCL2): 2.38 nM
IC50 (Pfeiffer [27]): 0.49 nM

AUC(0-inf) [1]: 125 ng·h/mL
clearance [5]: 99.7 mL/min/kg
bioavailability [6]: 7.4%
AUC(0-t) [8]: 331 ng·h/mL
Vd [12]: 2.61 L/kg
AUC(0-inf) [16]: 340 ng·h/mL
half-life [17]: 25.2 min
Cmax [18]: 912 ng/mL
AUC(0-t) [20]: 122 ng·h/mL
Cmax [24]: 152 ng/mL
IC50 (KARPAS-422 [26]): 0.98 nM
half-life [34]: 37.2 min
Compound: CCN(c1cc(-c2ccc3c(c2)NC(=O)C32CCOCC2)cc(C(=O)NCc2c(C)cc(C)[nH]c2=O)c1C)C1CCOCC1
IC50 (WSUDLCL2): 1.34 nM
IC50 (Pfeiffer [27]): 0.56 nM
